pIC50: −log10 of the molar value. Like-named read-outs stand apart in the source and are kept apart here.
What was measured:
[1] = tested on: Karpas 299 lymphoma cell line positive for the oncogenic fusion protein NPM-ALK; assay: Tritiated thymidine uptake cell proliferation assay, Karpas 299; assay type: cell-based; settings: Homo sapiens
[2] = target: T1, BaF3 cell line transfected with the oncogenic fusion protein NPM-ALK and expressing the mutation L1196M (Homo sapiens, UniProt Q9UM73, L1196M, cells depend on it); assay: Tritiated thymidine uptake cell proliferation assay, BaF3 NPM-ALK L1196M; assay type: cell-based, murine
T1 construct: fused on or other part: P06748 (Nucleophosmin)
T1 sequence (Q9UM73 whole entry L1196M, the tested form may be a part): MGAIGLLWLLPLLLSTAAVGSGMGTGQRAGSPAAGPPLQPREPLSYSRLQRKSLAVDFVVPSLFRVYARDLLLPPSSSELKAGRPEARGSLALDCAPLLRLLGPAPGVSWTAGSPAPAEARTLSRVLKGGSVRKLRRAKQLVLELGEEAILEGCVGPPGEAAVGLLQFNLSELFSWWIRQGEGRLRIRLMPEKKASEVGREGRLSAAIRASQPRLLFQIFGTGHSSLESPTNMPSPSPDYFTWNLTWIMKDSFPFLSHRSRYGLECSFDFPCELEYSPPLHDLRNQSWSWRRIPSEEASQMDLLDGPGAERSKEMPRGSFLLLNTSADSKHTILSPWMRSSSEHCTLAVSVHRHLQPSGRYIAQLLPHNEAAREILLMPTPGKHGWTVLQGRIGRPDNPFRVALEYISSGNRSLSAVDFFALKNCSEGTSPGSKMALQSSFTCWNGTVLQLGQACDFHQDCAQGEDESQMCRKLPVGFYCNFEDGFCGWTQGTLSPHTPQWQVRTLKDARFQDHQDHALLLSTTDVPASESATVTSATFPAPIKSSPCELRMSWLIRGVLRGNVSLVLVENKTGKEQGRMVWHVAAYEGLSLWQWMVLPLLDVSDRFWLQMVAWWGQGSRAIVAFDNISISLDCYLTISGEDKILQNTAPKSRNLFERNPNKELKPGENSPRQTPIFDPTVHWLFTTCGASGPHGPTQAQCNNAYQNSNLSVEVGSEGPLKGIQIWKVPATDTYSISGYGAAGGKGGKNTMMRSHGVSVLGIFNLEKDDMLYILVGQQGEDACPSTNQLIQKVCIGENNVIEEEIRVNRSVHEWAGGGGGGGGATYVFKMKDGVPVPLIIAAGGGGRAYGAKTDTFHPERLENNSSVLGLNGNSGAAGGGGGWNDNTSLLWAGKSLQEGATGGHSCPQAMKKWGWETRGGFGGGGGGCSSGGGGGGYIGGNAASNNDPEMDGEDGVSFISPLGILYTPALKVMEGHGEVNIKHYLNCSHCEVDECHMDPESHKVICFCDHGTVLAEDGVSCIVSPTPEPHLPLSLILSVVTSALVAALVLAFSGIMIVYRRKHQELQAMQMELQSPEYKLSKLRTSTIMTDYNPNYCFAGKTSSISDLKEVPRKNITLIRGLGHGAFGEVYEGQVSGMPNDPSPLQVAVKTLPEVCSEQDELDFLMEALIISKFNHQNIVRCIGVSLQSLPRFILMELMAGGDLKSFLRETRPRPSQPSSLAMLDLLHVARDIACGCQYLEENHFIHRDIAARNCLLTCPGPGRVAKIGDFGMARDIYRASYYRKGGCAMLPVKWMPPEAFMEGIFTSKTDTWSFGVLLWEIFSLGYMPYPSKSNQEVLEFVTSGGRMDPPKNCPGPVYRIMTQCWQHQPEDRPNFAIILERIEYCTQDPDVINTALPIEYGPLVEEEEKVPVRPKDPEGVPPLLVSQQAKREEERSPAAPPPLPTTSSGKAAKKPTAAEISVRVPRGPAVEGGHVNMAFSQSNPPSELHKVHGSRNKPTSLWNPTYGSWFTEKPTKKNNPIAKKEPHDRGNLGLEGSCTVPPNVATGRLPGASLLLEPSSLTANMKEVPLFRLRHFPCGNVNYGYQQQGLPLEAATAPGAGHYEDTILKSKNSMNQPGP

CN1CCN(c2ccc(C(=O)Nc3n[nH]c4cc(-c5ccc(O)cc5)c(Cc5cc(F)cc(F)c5)cc34)c(NC3CCOCC3)c2)CC1 [Example 3, N-[5-[(3,5-difluorophenyl)methyl]-6-(4-hydroxyphenyl)-1H-indazol-3-yl]-4-(4-methylpiperazin-1-yl)-2-(tetrahydropyran-4-ylamino)benzamide]
inhibition at 0.2 µM ([1]; KARPAS-299, read-out: % Inhibition Karpas 299 cells): 93%
pIC50 ([1]; KARPAS-299, read-out: IC50 of cellular proliferation, Karpas299): 7.64
GI50 ([2]; averaged IC50 values of cell proliferation inhibition, class letters, read-out: IC50 BaF3 NPM-ALK L1196M cells): 1 to 50 nM
GI50 ([2]; cell line BaF3 NPM-ALK L1196M, read-out: IC50 of cellular proliferation, BaF3 NPM-ALK L1196M): 6 nM
% Inhibition BaF3 NPM-ALK L1196M cells ([2]; percentage of inhibition of cell proliferation at 200 nM): 83%

Reference: US10336707B2, “Heterocyclic derivatives modulating activity of certain protein kinases” (EUDENDRON S.R.L., priority 2014, dated 2019)
